Test results published in PubChem BioAssay (NCI).
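Dose response: 5 concentrations. Exposure: 48 h. Format: 96-well plates. Endpoint: linear interpolation; highest concentration if not reached. Abbreviation: GI50, concentration required for 50% inhibition of growth. At the TGI there is no net growth.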

Assays:
Experiment in all cases: growth of human tumour cells (NCI), 48 h
[1] = tested on: PC-3 prostate
[2] = tested on: SK-MEL-5 melanoma
[3] = tested on: OVCAR-3 ovarian
[4] = tested on: A549 NSCLC
[5] = tested on: COLO 205 colon
[6] = tested on: DU-145 prostate
[7] = tested on: SNB-75 CNS
[8] = tested on: OVCAR-5 ovarian
[9] = tested on: K-562 leukemia
[10] = tested on: CCRF-CEM leukemia
[11] = tested on: NCI-H23 lung
[12] = tested on: CAKI-1 renal
[13] = tested on: SK-OV-3 ovarian
[14] = tested on: M14 melanoma
[15] = tested on: SN12C renal
[16] = tested on: U251 CNS
[17] = tested on: SW-620 colon
[18] = tested on: HCT-116 colon
[19] = tested on: MDA-MB-435
[20] = tested on: KM12 colon
[21] = tested on: NCI-H460 lung
[22] = tested on: UO-31 renal
[23] = tested on: HOP-62 NSCLC
[24] = tested on: HCC-2998 colon
[25] = tested on: RPMI-8226 leukemia
[26] = tested on: HS 578T breast
[27] = tested on: SF-539 CNS
[28] = tested on: OVCAR-4 ovarian
[29] = tested on: OVCAR-8 ovarian
[30] = tested on: NCI/ADR-RES ovarian
[31] = tested on: A498 renal
[32] = tested on: RXF 393 renal
[33] = tested on: HCT-15 colon
[34] = tested on: MALME-3M melanoma
[35] = tested on: SF-295 CNS
[36] = tested on: NCI-H226 lung
[37] = tested on: MDA-MB-231 breast
[38] = tested on: SNB-19 CNS
[39] = tested on: EKVX NSCLC
[40] = tested on: SR leukemia
[41] = tested on: 786-0 renal
[42] = tested on: UACC-62 melanoma
[43] = tested on: LOX IMVI melanoma
[44] = tested on: HOP-92 NSCLC
[45] = tested on: UACC-257 melanoma
[46] = tested on: ACHN renal
[47] = tested on: SK-MEL-28 melanoma
[48] = tested on: SF-268 CNS
[49] = tested on: HL-60(TB) leukemia

Work on O=S1(=O)C=C(c2ccccc2)C(c2ccccc2)=C1 yielded a GI50 [1] of 1.79 µM, a TGI [1] of 4.52 µM and a GI50 [2] of 1.57 µM. For the same compound, the TGI [2] was 2.9 µM, the GI50 [3] was 1.56 µM and the TGI [3] was 2.9 µM. For the same compound, the GI50 [4] was 2.13 µM, the TGI [4] was 5.11 µM and the GI50 [5] was 1.77 µM. The TGI [5] was 3.61 µM, the GI50 [6] was 1.64 µM and the TGI [6] was 3 µM. For the same compound, the GI50 [7] was 1.33 µM, the TGI [7] was 2.6 µM and the GI50 [8] was 1.69 µM. The TGI [8] was 3.14 µM, the GI50 [9] was 1.83 µM and the TGI [9] was over 100 µM. The GI50 [10] was 3 µM, the TGI [10] was 7.6 µM and the GI50 [11] was 1.86 µM. It also gave a TGI [11] of 3.93 µM, a GI50 [12] of 1.16 µM and a TGI [12] of 2.63 µM. The GI50 [13] was 7.81 µM, the TGI [13] was 20.2 µM and the GI50 [14] was 1.58 µM. The TGI [14] was 3.01 µM, the GI50 [15] was 1.79 µM and the TGI [15] was 3.92 µM. The GI50 [16] was 1.54 µM, the TGI [16] was 2.88 µM and the GI50 [17] was 1.07 µM. For the same compound, the TGI [17] was 2.39 µM, the GI50 [18] was 1.09 µM and the TGI [18] was 2.28 µM. For the same compound, the GI50 [19] was 1.41 µM, the TGI [19] was 3.33 µM and the GI50 [20] was 1.63 µM. For the same compound, the TGI [20] was 3.2 µM, the GI50 [21] was 1.88 µM and the TGI [21] was 4.23 µM. The GI50 [22] was 1.15 µM, the TGI [22] was 2.6 µM and the GI50 [23] was 1.87 µM. For the same compound, the TGI [23] was 4.42 µM, the GI50 [24] was 1.71 µM and the TGI [24] was 3.16 µM. It also gave a GI50 [25] of 3.3 µM, a TGI [25] of 7.92 µM and a GI50 [26] of 1.18 µM. It also gave a TGI [26] of 3.5 µM, a GI50 [27] of 2.14 µM and a TGI [27] of 5.94 µM. For the same compound, the GI50 [28] was 1.9 µM, the TGI [28] was 3.82 µM and the GI50 [29] was 1.56 µM. For the same compound, the TGI [29] was 3.19 µM, the GI50 [30] was 2.73 µM and the TGI [30] was 9.31 µM. The GI50 [31] was 1.47 µM, the TGI [31] was 3.25 µM and the GI50 [32] was 1.62 µM. It also gave a TGI [32] of 3 µM, a GI50 [33] of 1.53 µM and a TGI [33] of 3.15 µM. For the same compound, the GI50 [34] was 1.93 µM, the TGI [34] was 4.72 µM and the GI50 [35] was 2.06 µM. For the same compound, the TGI [35] was 6.3 µM, the GI50 [36] was 1.68 µM and the TGI [36] was 3.34 µM. The GI50 [37] was 1.62 µM, the TGI [37] was 3.09 µM and the GI50 [38] was 1.98 µM. It also gave a TGI [38] of 4.63 µM, a GI50 [39] of 2.08 µM and a TGI [39] of 6.21 µM. For the same compound, the GI50 [40] was 2.8 µM, the TGI [40] was 13.9 µM and the GI50 [41] was 1.49 µM. The TGI [41] was 2.82 µM, the GI50 [42] was 1.73 µM and the TGI [42] was 3.64 µM. It also gave a GI50 [43] of 1.69 µM, a TGI [43] of 3.05 µM and a GI50 [44] of 1.65 µM. For the same compound, the TGI [44] was 3.19 µM, the GI50 [45] was 1.52 µM and the TGI [45] was 2.96 µM. The GI50 [46] was 1.55 µM, the TGI [46] was 2.88 µM and the GI50 [47] was 1.77 µM. It also gave a TGI [47] of 3.18 µM, a GI50 [48] of 1.49 µM and a TGI [48] of 3.38 µM. It also gave a GI50 [49] of 2.14 µM and a TGI [49] of 5.21 µM.
